The subject of test [1] is TFF3-high expressing mammary carcinoma (MC) cell lines. Kind of test: AlamarBlue viability and Annexin V-FITC/PI flow cytometry in mammary carcinoma cell lines (FIG. 1). It is filed as cell-based, human. The source says: (§1) (A) Inhibitory concentration 50% (IC50) values for compound 43 in the MC cell lines are tabulated, using an AlamarBlue™ cell viability assay as previously described in Pandey V et al., Breast Cancer Res. 2014; 16(5):429. (B) Measured dose-dependent manner effect of compound 43 on the viability of MC cells (left-side, TFF3-high and right, TFF3-low) using AlamarBlue™ viability assay as previously described (ibid). (C) Apoptotic cell death of mammary carcinoma cell lines measured after treatment with 10 μM compound 43 using flow cytometry analysis at 24 hour as described previously in Keerthy H K et al., PloS one. 2014; 9(9):e107118. Annexin V-FITC staining is indicated on the X-axis and PI staining on the Y-axis. […] Acquisition of Annexin V and PI data were represented as percentage (%) in each quadrant. Note: CM, conditioned media; MCF10A and MCF12A, non-transformed immortalized-mammary epithelial cell line. Points are mean of triplicate experiments; bars, ±SD. Statistical significance was assessed by using an unpaired two-tailed Student's t test (P<0.05 was considered as significant) using GraphPad Prism5. Columns are mean of triplicate experiments; bars, ±SD. **P<0.001, *P<0.05.
For orientation: The colour change of resazurin is a common sign of viable cells or microbes.

The test system of another test is Hep3B. Put plainly: AlamarBlue cell viability assay, Hep3B. The class given is cell-based. Particulars: Homo sapiens, Hepatocellular. The protocol: (§2) The human immortalized mammary epithelial cell lines, MCF10A, and MCF12A; and immortalized hepatocellular epithelial cell line, LO2 were obtained from the American Type Culture Collection (ATCC, Rockville, Md.) and were cultured as per ATCC propagation instructions. MC cell lines, MCF7, T47D, BT474, BT20, MDA-MB-361, MDA-MB-436, MDA-MB-468, and MDA-MB-231; endometrial carcinoma cell lines, Ishikawa, ECC1, RL95-2 and AN3; hepatocellular carcinoma cell lines, Hep3B, H2P, and H2M; colon carcinoma cell lines, DLD-1, and Caco-2; and prostate carcinoma cell lines, PC3, LNCaP, and DU145 were obtained from the American Type Culture Collection (ATCC, Rockville, Md.). Pancreatic carcinoma cell lines, AsPC-1 and BxPC-3; Lung carcinoma cell lines, HCC-827, NCI-H1975, HCC-4006, PC-14, and NCI-H1299; and Thyroid carcinoma cell lines HTH83, CAL62, T238, and OGK-M were obtained from Prof. H. Phillip Koeffler's laboratory at The Cancer Science Institute of Singapore, National University of Singapore (NUS). Gastric carcinoma cell lines, AGS, MKN-28, MKN-45, and A2-528 were obtained from Prof. […]
(§3) In table 9 IC50 values of compound 43 compound library in several cancer cell lines are tabulated, using an AlamarBlue® cell viability assay as previously described in Pandey V et al., Breast Cancer Res. 2014; 16(5):429. Statistical analysis was assessed by using GraphPad Prism5. […]

Another test deals with AsPC-1. Put plainly: AlamarBlue cell viability assay, AsPC-1. Particulars: Homo sapiens, ASPC1, Pancreatic. It is filed as cell-based. The method, then:
as §2, §3

The subject of a further test is MCF-7. Kind of test: AlamarBlue cell viability assay, MCF7. The class given is cell-based, human.
From the text: as §1
The human immortalized mammary epithelial cell lines, MCF10A, and MCF12A; and immortalized hepatocellular epithelial cell line, LO2 were obtained from the American Type Culture Collection (ATCC, Rockville, Md.) and were cultured as per ATCC propagation instructions. MC cell lines, MCF7, T47D, BT474, BT20, MDA-MB-361, MDA-MB-436, MDA-MB-468, and MDA-MB-231; endometrial carcinoma cell lines, Ishikawa, ECC1, RL95-2 and AN3; hepatocellular carcinoma cell lines, Hep3B, H2P, and H2M; colon carcinoma cell lines, DLD-1, and Caco-2; and prostate carcinoma cell lines, PC3, LNCaP, and DU145 were obtained from the American Type Culture Collection (ATCC, Rockville, Md.). Pancreatic carcinoma cell lines, AsPC-1 and BxPC-3; Lung carcinoma cell lines, HCC-827, NCI-H1975, HCC-4006, PC-14, and NCI-H1299; and Thyroid carcinoma cell lines HTH83, CAL62, T238, and OGK-M were obtained from Prof. H. Phillip Koeffler's laboratory at The Cancer Science Institute of Singapore, National University of Singapore (NUS). Gastric carcinoma cell lines, AGS, MKN-28, MKN-45, and A2-528 were obtained from Prof. Yoshiaki Ito's laboratory at The Cancer Science Institute of Singapore, NUS. All cell lines were cultured as per ATCC propagation instructions.
The above synthesised compounds were initially evaluated against a range of carcinoma cells using an AlamarBlue™ cell viability assay (using the protocol discussed above). The tested compounds were generally efficacious at reducing the viability of various carcinoma cells compared to vehicle (DMSO) treated cells. Table 8 provides selected IC50 data for certain of the compounds synthesised herein against MCF-7.
In table 9 IC50 values of compound 43 compound library in several cancer cell lines are tabulated, using an AlamarBlue® cell viability assay as previously described in Pandey V et al., Breast Cancer Res. 2014; 16(5):429. Statistical analysis was assessed by using GraphPad Prism5. Note: NV, no value.

The next test has as its system Caco-2. Put plainly: AlamarBlue cell viability assay, Caco-2. It is filed as cell-based. The settings on record: Homo sapiens, Colon. The protocol:
as §2, §3

A further test has as its system OGK-M. Put plainly: AlamarBlue cell viability assay, OGK-M. Particulars: Homo sapiens, Thyroid. The class given is cell-based. The protocol:
as §2, §3

For test [2], the system named is TFF3-high expressing mammary carcinoma cell (MCF7, BT474, MDA-MB-361). Put plainly: Cell viability in 3D Matrigel culture, AlamarBlue (FIG. 4). It is filed as cell-based, human. The settings on record: cultured 14 days in 3D Matrigel, vs vehicle (DMSO). The protocol:
Cell viability in colonies generated by MCF7, BT474 and MDA-MB-361 cell after exposure with compound 43 or vehicle (DMSO) cultured 14 days in 3D Matrigel using AlamarBlue™ viability assay as previously described in Pandey V et al., Breast Cancer Res. 2014; 16(5):429. Microscopic visualization (right side) of colonies generated by BT474 and MCF7 cells after exposure with compound 43 or vehicle (DMSO) cultured 14 days in 3D Matrigel. On days 5, 8 and 11, colonies were treated with compound 43 or DMSO. Statistical significance was assessed by using an unpaired two-tailed Student's t test (P<0.05 was considered as significant) using GraphPad Prism5.

In the next test the test system is LNCaP. Put plainly: AlamarBlue cell viability assay, LNCaP. The class given is cell-based. The settings on record: Homo sapiens, Prostate. The method, then: as §2, §3
Another test deals with T47D. Put plainly: AlamarBlue cell viability assay, T47D. It is filed as cell-based. The settings on record: Homo sapiens, Mammary.
From the text: as §1, with “Columns are mean of triplicate experiments; bars, ±SD. **P<0.001, *P<0.05.” left out
as §3

Another test relates to BT20. Kind of test: AlamarBlue cell viability assay, BT20. The settings on record: Homo sapiens, BT-20, Mammary. The class given is cell-based.
From the text: as §1, with “Columns are mean of triplicate experiments; bars, ±SD. **P<0.001, *P<0.05.” left out
as §3

The subject of a further test is HCC827. Kind of test: AlamarBlue cell viability assay, HCC827. It is filed as cell-based. Particulars: Homo sapiens, Lung. The method, then: as §2, §3
The next test deals with MDA-MB-361. Put plainly: AlamarBlue cell viability assay, MDA-MB-361. The class given is cell-based. Particulars: Homo sapiens, Mammary.
From the text: as §1, with “Columns are mean of triplicate experiments; bars, ±SD. **P<0.001, *P<0.05.” left out
as §3

A further test deals with MKN-28. Put plainly: AlamarBlue cell viability assay, MKN-28. It is filed as cell-based. The settings on record: Homo sapiens, Gastric. The method, then: as §2, §3

With `Cc1cc(-c2ccc(C3C(C#N)=C(N)Oc4c3c(=O)oc3ccccc43)cc2)cnc1F` (stereo not shown) [Compound 43, 2-Amino-4-(4-(6-fluoro-5-methylpyridin-3-yl)phenyl)-5-oxo-4H,5H-pyrano[3,2-c]chromene-3-carbonitrile], the apoptosis result in test [1] (10 μM, 24 hour, Annexin V-FITC/PI flow cytometry) was “stimulates apoptosis”. The cell viability entry in [1] (AlamarBlue) is “suppresses cell viability”. Further, the IC50 with Hep3B came to 8.44 µM; in the test on AsPC-1, 4.41 µM; in the test with MCF-7 (Homo sapiens, MCF7, MCF-7, AlamarBlue cell viability (Table 8)), 3.21 µM; in the test with MCF-7 (Homo sapiens, MCF7, Mammary, MCF7), 3.21 µM; in the test with MCF-7 (MCF-7, AlamarBlue cell viability (Table 8)), 4.51 µM; in the test with Caco-2, 2.84 µM. The IC50 came to 411 µM in the test with OGK-M; 226 µM with LNCaP; 5.24 µM with T47D; 468 µM in the test on BT20; 0.93 µM in the test on HCC827; 1.61 µM in the test with MDA-MB-361. Besides, the IC50 in the test on MKN-28 was 84.9 µM. Also, the “cell viability in Matrigel 3D culture” value in [2] is “suppresses cell viability”.

For orientation: IC50 means the concentration that inhibits the measured activity by half. Lower therefore signals greater potency in that assay.

These data come from patent US20200147039A1, “COMPOUNDS USEFUL IN INHIBITING HUMAN TREFOIL FACTOR 3” (NATIONAL UNIVERSITY OF SINGAPORE, priority 2017, published 2020).
